Measured values reported in patent US9988380B2, “Quorum sensing inhibitors” (priority 2013, dated 2018).

Legend:
elastase (lasB; PA3724) = conditions: cited from earlier work
[1] = test system: LasR-controlled GFP expression in P. aeruginosa PAO1 lasB-gfp(ASV) strain; assay: P. aeruginosa QS inhibition assay with lasB-gfp(ASV) reporter strain; assay type: cell-based, Pseudomonas aeruginosa; conditions: for effect on cell growth / inhibition of LasR-controlled GFP expression: P. aeruginosa lasB-gfp(ASV) strain; for effect on cell growth: OD600; for inhibition of LasR-controlled GFP expression: 0.78125-50 μM
Description: P. aeruginosa QS inhibition assays. Test compounds were dissolved in 100% DMSO and mixed with ABTGC media, after which they were added to the first column of wells of a 96-well microtitre plate (Nunc) to give a final concentration of 100 μM in a final volume of 200 μl. 100 μL of ABTGC media was then added to the remaining wells in the plate and serial two-fold dilutions of the inhibitors were done by adding 100 μL of the preceding inhibitor-containing well to the subsequent one. The final column was left without inhibitor as a control. Next, an overnight culture of P. aeruginosa lasB-gfp(ASV) strain, grown in LB medium at 37° C. with shaking, was diluted to an optical density (OD) at 600 nm of 0.2, and 100 μl of bacterial suspension was added to each well of the microtitre plate. […] The microtitre plate was incubated at 37° C. in a Tecan Infinite 200 Pro plate reader (Tecan Group Ltd., Männedorf, Switzerland). GFP fluorescence (excitation at 485 nm, emission at 535 nm) and cell density (OD600) measurements were collected at 15 min intervals for at least 14 h. The P. aeruginosa Rhl and Pqs inhibition assays were performed in a similar manner to the LasR inhibition assay.
Inhibition Assay with the P. aeruginosa lasB-gfp(ASV) strain. In the preliminary screen, the 22 selected QSI candidates were screened for their ability to inhibit QS-controlled green fluorescent protein (GFP) expression in the P. aeruginosa lasB-gfp(ASV) strain. Elastase (encoded by the lasB gene) is a virulence factor that is controlled by LasR and therefore a good indicator for LasR activity. […] For ease of identification, each compound was designated a short compound identification code based on its well position in the shipment in place of its standard IUPAC name.
The dose-response curves of these 5 QSI candidates when incubated with the P. aeruginosa PAO1 lasB-gfp(ASV) strain are shown in FIG. 3. GFP expression, which was measured in relative fluorescence units, was normalized by dividing the GFP value by the corresponding OD600 value measured at that time-point. ‘Control’ refers to the PAO1 strain grown without the presence of QSI, and as expected, it had the highest GFP per OD values. For these five compounds, dose-dependent inhibition of lasB-gfp expression was observed, i.e. the higher the concentration of QSI that was present, the greater the inhibition of gfp expression.
IC50 Value Comparisons of the Five QSI Candidates. The slope of the curve for each QSI was calculated based on its respective dose-response curves (from FIG. 3) and plotted against the log inhibitor concentration. The slope is indicative of the biosynthesis rate of GFP due to AHL induction. The half maximal inhibitory concentrations (IC50) of the five QSI candidates were calculated using the Graphpad Prism 6 software package (GraphPad Software Inc., CA, USA).

protease IV = conditions: cited from earlier work
rhlA-gfp(ASV) expression = assay: Inhibition of the Rhl QS system, rhlA-gfp(ASV) reporter in PAO1 wild-type and lasR mutant; assay type: cell-based, P. aeruginosa
Description: (§1) Inhibition of the Rhl and PQS QS systems in wild-type PAO1 and PAO1 lasR mutant. Wild-type P. aeruginosa PAO1 strains harboring either the rhlA-gfp(ASV) reporter or the pqsA-gfp(ASV) reporter, and a P. aeruginosa PAO1 lasR mutant harboring either the rhlA-gfp(ASV) reporter or the pqsA-gfp(ASV) reporter were used for this experiment (Refer to FIG. 11 for strain information). Overnight cultures of these four strains were diluted 100-fold in ABTGC media within 96-well microtitre plates to a final volume of 200 μL per well. Each of the five QSIs was added in triplicate to a final concentration of 50 μM. 0.5% DMSO was used as a negative control. The microtitre plate was incubated at 37° C. in a Tecan Infinite 200 Pro plate reader where GFP and OD600 readings were measured at 15 min intervals.
(§2) Effect of QSIs on Rhl and Pqs Quorum-Sensing Systems. In order to address the problem of the specificity of present compounds, the five identified QSI compounds were tested to see if they had any effect on the rhl and pqs systems. The five QSIs were tested against a PAO1 wild-type and a PAO1 lasR mutant harboring either the rhlA-gfp (ASV) bioreporter or the pqsA-gfp (ASV) bioreporter. The rhlA system is dependent on the RhlR/I system. By doing so, we were able to determine if a QSI is able to inhibit the other two QS systems (i.e. rhl and pqs) in a lasR-dependent/independent manner (FIG. 8).

pqsA-gfp(ASV) expression = assay: Inhibition of the PQS QS system, pqsA-gfp(ASV) reporter in PAO1 wild-type and lasR mutant; assay type: cell-based, P. aeruginosa
Description: as §1, §2

Row | SMILES | reduction of expression of elastase (elastase (lasB; PA3724)) [fold] | effect on cell growth [1] | inhibition of LasR-controlled GFP expression [1] | other results
1 | O=C1C=C2C(=CCOC2O)O1 (stereo not drawn) [patulin] | −7 |  |  | 
2 | O=c1[nH]cnc2[nH]nnc12 [Compound C1, 6-hydro-3H-1,2,3-triazolo[5,4-d]pyrimidin-7-one] |  | without affecting cell growth | inhibit LasR-controlled GFP expression in a dose-dependent manner | IC50 of lasB-gfp expression, range in words ([1]; P. aeruginosa PAO1 lasB-gfp(ASV)): high nanomolar range
3 | O=[N+]([O-])c1cc[n+]([O-])cc1 [Compound 4-NPO, 4-nitropyridine-N-oxide] | −22.6 |  |  | reduction of expression of protease IV (protease IV): −20.7 fold
4 | C=C(C)C(=O)C(=CC(=O)O)OC [penicillic acid] | −12 |  |  | 
5 | NC(Cc1cccc(F)c1)C(=O)O (racemic) [Compound F1, 2-amino-3-(3-fluorophenyl)propanoic acid] |  | without affecting cell growth | inhibit LasR-controlled GFP expression in a dose-dependent manner | inhibition of rhlA-gfp expression (rhlA-gfp(ASV) expression; PAO1 lasR mutant, 50 μM QSI): 63.1%; inhibition of rhlA-gfp expression (rhlA-gfp(ASV) expression; wild-type PAO1, 50 μM QSI): 61.7%; inhibition of pqsA-gfp expression (pqsA-gfp(ASV) expression; PAO1 lasR mutant, 50 μM QSI): 39.4%; inhibition of pqsA-gfp expression (pqsA-gfp(ASV) expression; wild-type PAO1, 50 μM QSI): 25.4%
6 | NC(C(=O)O)C(O)c1ccccc1 (racemic) [Compound H1, 2-amino-3-hydroxy-3-phenylpropanoic acid] |  | without affecting cell growth | inhibit LasR-controlled GFP expression in a dose-dependent manner | 
